Results reported in patent US11407768B2, “AMPK activators” (Kallyope, Inc., priority 2020, dated 2022).

Target: Recombinant AMPK α1/β1/γ1 complex (Homo sapiens (Human), UniProt Q13131+Q9Y478)
Assay: In vitro pAMPK1 kinase activation assay (ADP-Glo, SAMS peptide)
Format: biochemical
Conditions: AMPK α1/β1/γ1 pre-activated with CAMKK2; 12-point curve; 15 min compound incubation
Method: Compound effect on AMPK enzyme activation was determined in a cell-free format with a 12-point concentration curve. The ADP-Glo detection system was used to determine phosphorylation of a SAMS peptide substrate. Recombinant AMPK α1/β1/γ1 complex was pre-activated by phosphorylation with CAMKK2 followed by incubated with compound for 15 minutes prior to the SAMS phosphorylation reaction. Activity curves and EC50 values were fitted by interpolation to an ATP:ADP standard curve as indicated by the ADP-Glo manufacturer using Prism software.

Sequence of Recombinant AMPK α1/β1/γ1 complex (Q13131 whole entry): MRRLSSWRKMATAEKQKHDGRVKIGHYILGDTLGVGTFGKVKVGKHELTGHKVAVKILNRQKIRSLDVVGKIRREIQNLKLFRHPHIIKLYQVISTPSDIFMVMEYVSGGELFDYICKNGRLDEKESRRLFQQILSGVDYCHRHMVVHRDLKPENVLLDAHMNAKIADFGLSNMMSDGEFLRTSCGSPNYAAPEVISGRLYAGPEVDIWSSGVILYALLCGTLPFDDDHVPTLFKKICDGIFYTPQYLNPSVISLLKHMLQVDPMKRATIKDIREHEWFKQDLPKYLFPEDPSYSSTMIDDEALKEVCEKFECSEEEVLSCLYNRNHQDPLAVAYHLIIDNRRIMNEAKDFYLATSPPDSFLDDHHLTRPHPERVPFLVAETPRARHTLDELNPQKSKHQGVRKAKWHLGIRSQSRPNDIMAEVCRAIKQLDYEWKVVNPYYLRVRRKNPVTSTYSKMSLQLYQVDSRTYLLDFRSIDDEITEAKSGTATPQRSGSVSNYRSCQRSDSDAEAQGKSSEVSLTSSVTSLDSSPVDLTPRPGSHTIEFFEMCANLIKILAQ
Sequence of Recombinant AMPK α1/β1/γ1 complex (Q9Y478 whole entry): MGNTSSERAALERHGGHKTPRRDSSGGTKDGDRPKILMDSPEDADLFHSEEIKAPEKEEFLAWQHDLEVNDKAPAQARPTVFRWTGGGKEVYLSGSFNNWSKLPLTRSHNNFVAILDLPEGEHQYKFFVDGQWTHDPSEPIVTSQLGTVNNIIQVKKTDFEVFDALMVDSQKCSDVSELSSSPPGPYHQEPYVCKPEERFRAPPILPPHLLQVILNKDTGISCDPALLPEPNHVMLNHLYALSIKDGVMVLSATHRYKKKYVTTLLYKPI
Sequence of Recombinant AMPK α1/β1/γ1 complex (P54619 whole entry partner): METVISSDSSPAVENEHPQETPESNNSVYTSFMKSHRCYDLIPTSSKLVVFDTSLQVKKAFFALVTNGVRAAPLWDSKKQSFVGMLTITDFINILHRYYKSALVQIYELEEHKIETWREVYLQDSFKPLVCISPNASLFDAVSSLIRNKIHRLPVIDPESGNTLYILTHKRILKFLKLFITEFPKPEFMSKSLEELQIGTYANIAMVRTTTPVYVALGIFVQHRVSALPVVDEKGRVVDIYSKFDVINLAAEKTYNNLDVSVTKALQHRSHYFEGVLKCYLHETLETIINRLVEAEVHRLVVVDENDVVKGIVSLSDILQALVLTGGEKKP

| Compound | EC50 [nM] |
| --- | --- |
| O=P(O)(O)c1ccc(-c2ccc(-c3nc4nc(O[C@H]5CO[C@H](CO)[C@@H](O)C5)[nH]c4cc3Cl)cc2)cc1 [Compound 12, (4′-(6-chloro-2-(((3R,5S,6R)-5-hydroxy-6-(hydroxymethyl)tetrahydro-2H-pyran-3-yl)oxy)-1H-imidazo[4,5b]pyridin-5-yl)-[1,1′-biphenyl]-4-yl)phosphonic acid] | 152 |
| CN(CCOCCO)C(=O)c1ccc(-c2ccc(-c3cc4nc(O[C@@H]5CO[C@H]6[C@@H]5OC[C@H]6O)[nH]c4cc3Cl)cc2)cc1 [Compound 48, 4′-(6-chloro-2-(((3R,3aR,6R,6aR)-6-hydroxyhexahydrofuro[3,2-b]furan-3-yl)oxy)-1H-benzo [d]imidazol-5-yl)-N-(2-(2-hydroxyethoxy)ethyl)-N-methyl-[1,1′-biphenyl]-4-carboxamide] | 1.16 |
| O=P(O)(O)c1ccc(-c2ccc(-c3nc4nc(O[C@H]5CO[C@H](CO)[C@H]5O)[nH]c4cc3Cl)cc2)cc1 [Compound 45, (4′-(6-chloro-2-(((3S,4R,5R)-4-hydroxy-5-(hydroxymethyl)tetrahydrofuran-3-yl)oxy)-1H-imidazo[4,5-b]pyridin-5-yl)-[1,1′-biphenyl]-4-yl)phosphonic acid] | > 10000 |
| O=C(NCCS(=O)(=O)O)c1ccc(-c2ccc(-c3nc4nc(O[C@@H]5CO[C@H]6[C@@H]5OC[C@H]6O)[nH]c4cc3Cl)cc2)cc1 [Compound 5, 2-(4′-(6-chloro-2-(((3R,3aR,6R,6aR)-6-hydroxyhexahydrofuro[3,2-b]furan-3-yl)oxy)-1H-imidazo[4,5-b]pyridin-5-yl)-[1,1′-biphenyl]-4-ylcarboxamido)ethanesulfonic acid] | 0.86 |
| O=C(O)C(O)CNCc1ccc(-c2ccc(-c3nc4nc(O[C@@H]5CO[C@H]6[C@@H]5OC[C@H]6O)[nH]c4cc3Cl)cc2)cc1 (stereo partly drawn) [Compound 22, 3-(((4′-(6-chloro-2-(((3R,3aR,6R,6aR)-6-hydroxyhexahydrofuro[3,2-b]furan-3-yl)oxy)-1H-imidazo[4,5-b]pyridin-5-yl)-[1,1′-biphenyl]-4-yl)methyl)amino)-2-hydroxypropanoic acid] | 0.63 |
| O=C(NCCCS(=O)(=O)O)c1ccc(-c2ccc(-c3nc4nc(O[C@@H]5CO[C@H]6[C@@H]5OC[C@H]6O)[nH]c4cc3Cl)cc2)cc1 [Compound 6, 3-(4′-(6-chloro-2-(((3R,3aR,6R,6aR)-6-hydroxyhexahydrofuro[3,2-b]furan-3-yl)oxy)-1H-imidazo[4,5-b]pyridin-5-yl)-[1,1′-biphenyl]-4-carboxamido)propane-1-sulfonic acid] | 0.62 |
| O=C(CCCNCc1ccc(-c2ccc(-c3cc4nc(O[C@@H]5CO[C@H]6[C@@H]5OC[C@H]6O)[nH]c4cc3Cl)cc2)cc1)NC(CO)CO [Compound 38, 4-(((4′-(6-chloro-2-(((3R,3aR,6R,6aR)-6-hydroxyhexahydrofuro[3,2-b]furan-3-yl)oxy)-1H-benzo[d]imidazol-5-yl)-[1,1′-biphenyl]-4-yl)methyl)amino)-N-(1,3-dihydroxypropan-2-yl)butanamide] | 2.4 |
| O=C(NCCCP(=O)(O)O)c1ccc(-c2ccc(-c3nc4nc(O[C@@H]5CO[C@H]6[C@@H]5OC[C@H]6O)[nH]c4cc3Cl)cc2)cc1 [Compound 14, (3-(4′-(6-chloro-2-(((3R,3aR,6R,6aR)-6-hydroxyhexahydrofuro[3,2-b]furan-3-yl)oxy)-1H-imidazo[4,5-b]pyridin-5-yl)-[1,1′-biphenyl]-4-carboxamido)propyl)phosphonic acid] | 0.5 |
| OCCOCC1CN(Cc2ccc(-c3ccc(-c4cc5nc(O[C@@H]6CO[C@H]7[C@@H]6OC[C@H]7O)[nH]c5cc4Cl)cc3)cc2)C1 [Compound 50] | 1.46 |
| O[C@@H]1CO[C@H]2[C@@H]1OC[C@H]2Oc1nc2cc(-c3ccc(-c4ccc(CN5CCNCC5)cc4)cc3)c(Cl)cc2[nH]1 [Compound 49, (3R,3aR,6R,6aR)-6-((6-chloro-5-(4′-(piperazin-1-ylmethyl)-[1,1′-biphenyl]-4-yl)-1H-benzo[d]imidazol-2-yl)oxy)hexahydrofuro[3,2-b]furan-3-ol] | 1.76 |
| OCCN1CCN(Cc2ccc(-c3ccc(-c4nc5nc(O[C@@H]6CO[C@H]7[C@@H]6OC[C@H]7O)[nH]c5cc4Cl)cc3)cc2)CC1 [Compound 51, (3R,3aR,6R,6aR)-6-((6-chloro-5-(4′-((4-(2-hydroxyethyl)piperazin-1-yl)methyl)-[1,1′-biphenyl]-4-yl)-1H-imidazo[4,5-b]pyridin-2-yl)oxy)hexahydrofuro[3,2-b]furan-3-ol] | 0.72 |
| O=C(CCCNCc1ccc(-c2ccc(-c3cc4nc(O[C@@H]5CO[C@H]6[C@@H]5OC[C@H]6O)[nH]c4cc3Cl)cc2)cc1)NCCO [Compound 37, 4-(((4′-(6-chloro-2-(((3R,3aR,6R,6aR)-6-hydroxyhexahydrofuro[3,2-b]furan-3-yl)oxy)-1H-benzo[d]imidazol-5-yl)-[1,1′-biphenyl]-4-yl)methyl)amino)-N-(2-hydroxyethyl)butanamide] | 3.6 |
| O=C(NC[C@H](O)[C@@H](O)[C@H](O)[C@H](O)CO)c1ccc(-c2ccc(-c3cc4nc(O[C@@H]5CO[C@H]6[C@@H]5OC[C@H]6O)[nH]c4cc3Cl)cc2)cc1 [Compound 30, 4′-(6-chloro-2-(((3R,3aR,6R,6aR)-6-hydroxyhexahydrofuro[3,2-b]furan-3-yl)oxy)-1H-benzo[d]imidazol-5-yl)-N-((2S,3R,4R,5R)-2,3,4,5,6-pentahydroxyhexyl)-[1,1′-biphenyl]-4-carboxamide] | 0.65 |
| O=S(=O)(NC[C@H](O)[C@@H](O)[C@H](O)[C@H](O)CO)c1ccc(-c2ccc(-c3nc4nc(O[C@@H]5CO[C@H]6[C@@H]5OC[C@H]6O)[nH]c4cc3Cl)cc2)cc1 [Compound 3, 4′-(6-chloro-2-(((3R,3aR,6R,6aR)-6-hydroxyhexahydrofuro[3,2-b]furan-3-yl)oxy)-1H-imidazo [4,5-b]pyridin-5-yl)-N-((2S,3R,4R,5R)-2,3,4,5,6-pentahydroxyhexyl)-[1,1′-biphenyl]-4-sulfonamide] | 0.09 |

The next lines start with the values.

| EC50 [nM] | Compound |
| --- | --- |
| 1.09 | OCC1CN(Cc2ccc(-c3ccc(-c4cc5nc(O[C@@H]6CO[C@H]7[C@@H]6OC[C@H]7O)[nH]c5cc4Cl)cc3)cc2)C1 [Compound 63, (3R,3aR,6R,6aR)-6-((6-chloro-5-(4′((3-(hydroxymethyl)azetidin-1-yl)methyl)-[1,1′-biphenyl]-4-yl)-1H-benzo[d]imidazol-2-yl)oxy)hexahydrofuro[3,2-b]furan-3-ol] |
| 0.93 | NCC1CN(Cc2ccc(-c3ccc(-c4cc5nc(O[C@@H]6CO[C@H]7[C@@H]6OC[C@H]7O)[nH]c5cc4Cl)cc3)cc2)C1 [Compound 67, (3R,3aR,6R,6aR)-6-((5-(4′-((3-(aminomethyl)azetidin-1-yl)methyl)-[1,1′-biphenyl]-4-yl)-6-chloro-1H-benzo[d]imidazol-2-yl)oxy)hexahydrofuro[3,2-b]furan-3-ol] |
| 1.84 | O=S(=O)(O)c1ccc(-c2ccc(-c3nc4nc(O[C@@H]5CO[C@H]6[C@@H]5OC[C@H]6O)[nH]c4cc3Cl)cc2)cc1 [Compound 69, 4′-(6-chloro-2-(((3R,3aR,6R,6aR)-6-hydroxyhexahydrofuro[3,2-b]furan-3-yl)oxy)-1H-imidazo[4,5-b]pyridin-5-yl)-[1,1′-biphenyl]-4-sulfonic acid] |
| 1.3 | CN(CCOCCO)Cc1ccc(-c2ccc(-c3cc4nc(O[C@@H]5CO[C@H]6[C@@H]5OC[C@H]6O)[nH]c4cc3Cl)cc2)cc1 [Compound 62, (3R,3aR,6R,6aR)-6-((6-chloro-5-(4′-(((2-(2-hydroxyethoxy)ethyl)(methyl)amino)methyl)-[1,1′-biphenyl]-4-yl)-1H-benzoldlimidazol-2-yl)oxy)hexahydrofuro[3,2-b]furan-3-ol] |
| 0.8 | OCC1(CO)CN(Cc2ccc(-c3ccc(-c4cc5nc(O[C@@H]6CO[C@H]7[C@@H]6OC[C@H]7O)[nH]c5cc4Cl)cc3)cc2)C1 [Compound 66, (1-((4′-(6-chloro-2-(((3R,3aR,6R,6aR)-6-hydroxyhexahydrofuro[3,2-b]furan-3-yl)oxy)-1H-benzo[d]imidazol-5-yl)-[1,1′-biphenyl]-4-yl)methyl)azetidine-3,3-diyl)dimethanol] |
| 1.4 | O[C@@H]1CO[C@H]2[C@@H]1OC[C@H]2Oc1nc2cc(-c3ccc(-c4ccc(CN5C[C@H](O)[C@@H](O)C5)cc4)cc3)c(Cl)cc2[nH]1 [Compound 64] |
| 0.37 | O=C(NCCOCCO)c1ccc(-c2ccc(-c3cc4nc(O[C@@H]5CO[C@H]6[C@@H]5OC[C@H]6O)[nH]c4cc3Cl)cc2)c(O)c1 [Compound 75, 4′-(6-chloro-2-(((3R,3aR,6R,6aR)-6-hydroxyhexahydrofuro[3,2-b]furan-3-yl)oxy)-1H-benzo[d]imidazol-5-yl)-2-hydroxy-N-(2-(2-hydroxyethoxy)ethyl)-[1,1′-biphenyl]-4-carboxamide] |
| 1.33 | CC(NC[C@H](O)[C@@H](O)[C@H](O)[C@H](O)CO)c1ccc(-c2ccc(-c3nc4nc(O[C@@H]5CO[C@H]6[C@@H]5OC[C@H]6O)[nH]c4cc3Cl)cc2)cc1 (stereo partly drawn) [Compound 73] |
| 0.23 | OCC(CO)(CO)NCc1ccc(-c2ccc(-c3nc4nc(O[C@@H]5CO[C@H]6[C@@H]5OC[C@H]6O)[nH]c4cc3Cl)cc2)cc1 [Compound 53, 2-(((4′-(6-chloro-2-(((3R,3aR,6R,6aR)-6-hydroxyhexahydrofuro[3,2-b]furan-3-yl)oxy)-1H-imidazo[4,5-b]pyridin-5-yl)-[1,1′-biphenyl]-4-yl)methyl)amino)-2-(hydroxymethyl)propane-1,3-diol] |
| 0.57 | OCC1(CO)CCN(Cc2ccc(-c3ccc(-c4nc5nc(O[C@@H]6CO[C@H]7[C@@H]6OC[C@H]7O)[nH]c5cc4Cl)cc3)cc2)CC1 [Compound 54, (1((4′-(6-chloro-2-(((3R,3aR,6R,6aR)-6-hydroxyhexahydrofuro[3,2-b]furan-3-yl)oxy)-1H-imidazo[4,5-b]pyridin-5-yl)-[1,1′-biphenyl]-4-yl)methyl)piperidine-4,4-diyl)dimethanol] |
